The subject of assay [1] is SW-620. Nature of the assay: Cell cycle arrest in human SW620 cells assessed as accumulation at G2/M phase at 3.3 uM after 24 hrs by flow cytometry. Type of assay: functional, cell-based. (In general: Flow cytometry measures light scatter and fluorescence of single cells or particles in a stream.)
The subject of assay [2] is Mus musculus. Nature of the assay: Antitumor activity against mouse BA/F3 cells expressing Tel-JAK2 xenografted in NCr mouse assessed as reduction of phosphorylated Stat5 level in spleen at 30 mg/kg, po after 12 hrs by Western blotting. Particulars: BaF3. It counts as functional, organism-based. On the set-up: dose 30 mg/kg.
The subject of assay [3] is Mus musculus. Nature of the assay: Antitumor activity against mouse BA/F3 cells expressing Tel-JAK2 xenografted in NCr mouse assessed as reduction of phosphorylated Stat5 level in spleen at 10 mg/kg, po after 12 hrs by Western blotting. It counts as functional, organism-based. More on the design: dose 10 mg/kg. The settings on record: BaF3. In general terms: In western blotting, separated proteins are transferred to a membrane and probed.

Assay [4] relates to Mus musculus. The assay is described as follows: Antitumor activity against mouse BA/F3 cells expressing Tel-JAK2 xenografted in po dosed NCr mouse assessed as reduction of phosphorylated Stat5 level in spleen by Western blotting. Type of assay: functional, organism-based. Particulars: BaF3.
The test system of assay [5] is BaF3. The assay is described as follows: Antitumor activity against mouse BA/F3 cells expressing Tel-JAK2-luc xenografted in NCr mouse assessed as reduction of bioluminescent signal at 50 mg/kg, po bid measured on day 9 post-tumor cell implantation relative to control. Type of assay: functional.
The target of assay [6] is T1, Signal transducer and activator of transcription 5A (Homo sapiens) (UniProt P42229).
T1 sequence (whole entry): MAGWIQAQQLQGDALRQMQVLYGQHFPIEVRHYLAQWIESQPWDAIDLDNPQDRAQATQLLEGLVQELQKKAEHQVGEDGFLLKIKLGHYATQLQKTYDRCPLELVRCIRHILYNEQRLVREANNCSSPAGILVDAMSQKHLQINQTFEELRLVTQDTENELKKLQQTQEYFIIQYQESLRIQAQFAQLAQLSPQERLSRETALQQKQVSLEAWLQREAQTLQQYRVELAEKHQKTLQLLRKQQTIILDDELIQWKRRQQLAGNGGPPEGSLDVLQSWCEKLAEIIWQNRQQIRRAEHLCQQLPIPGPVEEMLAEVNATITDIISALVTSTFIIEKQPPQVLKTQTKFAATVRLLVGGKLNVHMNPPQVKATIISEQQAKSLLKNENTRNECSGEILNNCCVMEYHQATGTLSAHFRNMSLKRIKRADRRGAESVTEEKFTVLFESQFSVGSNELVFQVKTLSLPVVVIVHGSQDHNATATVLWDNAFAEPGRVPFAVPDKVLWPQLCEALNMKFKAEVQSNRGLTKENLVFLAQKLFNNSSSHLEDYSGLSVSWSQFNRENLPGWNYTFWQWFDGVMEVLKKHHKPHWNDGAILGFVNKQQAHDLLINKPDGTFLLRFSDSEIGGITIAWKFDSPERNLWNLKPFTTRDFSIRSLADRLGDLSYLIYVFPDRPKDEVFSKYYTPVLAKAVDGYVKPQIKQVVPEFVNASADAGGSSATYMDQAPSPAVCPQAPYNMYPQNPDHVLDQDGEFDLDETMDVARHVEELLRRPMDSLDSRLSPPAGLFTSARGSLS
Particulars: HEL, 0.3 uM.
Description: Inhibition of Stat5 phosphorylation in human HEL cells at 0.3 uM after 5 mins by Western blotting

Assay [7] concerns the target Signal transducer and activator of transcription 3 (Homo sapiens) (UniProt P40763). Particulars: HEL, 0.3 uM.
Description: Inhibition of Stat3 phosphorylation in human HEL cells at 0.3 uM after 5 mins by Western blotting

The source made the active and inactive calls. The rule behind the calls is not given here.

Chain of Signal transducer and activator of transcription 3 (Homo sapiens) (P40763 whole entry): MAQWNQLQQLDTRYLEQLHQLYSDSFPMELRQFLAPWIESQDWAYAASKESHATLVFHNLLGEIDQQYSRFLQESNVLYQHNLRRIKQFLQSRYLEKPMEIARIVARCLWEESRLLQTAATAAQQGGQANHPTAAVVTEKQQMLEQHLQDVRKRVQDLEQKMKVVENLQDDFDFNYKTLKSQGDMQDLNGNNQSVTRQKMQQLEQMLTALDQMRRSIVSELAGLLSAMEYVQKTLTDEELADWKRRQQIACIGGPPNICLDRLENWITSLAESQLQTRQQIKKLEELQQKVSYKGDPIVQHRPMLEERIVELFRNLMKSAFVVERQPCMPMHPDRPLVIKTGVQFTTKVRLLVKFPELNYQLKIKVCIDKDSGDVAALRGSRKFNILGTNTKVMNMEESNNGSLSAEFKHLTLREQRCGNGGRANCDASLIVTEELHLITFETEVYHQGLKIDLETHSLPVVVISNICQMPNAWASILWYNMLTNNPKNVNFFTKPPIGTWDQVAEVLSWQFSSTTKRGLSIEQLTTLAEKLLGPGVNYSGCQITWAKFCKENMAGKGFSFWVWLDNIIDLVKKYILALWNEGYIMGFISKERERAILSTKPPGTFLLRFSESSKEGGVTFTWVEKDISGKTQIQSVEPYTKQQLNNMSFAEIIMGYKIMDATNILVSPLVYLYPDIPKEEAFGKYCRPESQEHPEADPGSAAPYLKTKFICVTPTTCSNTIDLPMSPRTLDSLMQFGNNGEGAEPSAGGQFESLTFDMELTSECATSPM

For the molecule `Cc1cc(Nc2nc(N[C@@H](C)c3ncc(F)cn3)ncc2Cl)[nH]n1`, the outcome in assay [1] and in assay [2] was Active. The result in assay [3] was inactive. In addition, the Activity entry in assay [4] and in assay [5] was “Dose-dependent effect” each time. Further, the inhibition result in assay [6] and in assay [7] was “Active” each time.

(Values after ChEMBL document CHEMBL1649076, “Discovery of 5-chloro-N2-[(1S)-1-(5-fluoropyrimidin-2-yl)ethyl]-N4-(5-methyl-1H-pyrazol-3-yl)pyrimidine-2,4-diamine (AZD1480) as a novel inhibitor of the Jak/Stat pathway” (J Med Chem, 2011).)
